This is an account of results in PubChem BioAssay (NCI).

Structures are written as SMILES.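 Each compound was tested at five concentrations against cells in 96-well plates for 48 hours. GI50 marks 50% less growth. At the TGI there is no net growth.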 A value given as a limit tells only on which side of the number the result lay.

Holding throughout (test): NCI anticancer screen, dose series, 48 h
Test [1] deals with OVCAR-8 ovarian.
The subject of test [2] is M14 melanoma.
Test [3] relates to PC-3 prostate.
For test [4], the system named is SW-620 colon.
In test [5] the test system is SF-295 CNS.
For test [6], the system named is KM12 colon.
Test [7] relates to T-47D breast.
Test [8] relates to HT29 colon.
The subject of test [9] is K-562 leukemia.
The subject of test [10] is RXF 393 renal.

On to `COc1cc(-c2c3c(cn2S(=O)(=O)c2ccccc2)-c2nc(N)sc2CC3)cc(OC)c1OC`, for which the GI50 in test [1] is 2.4 µM; in test [2], 0.612 µM; in [3], 0.549 µM; in test [4] it was 0.39 µM; in test [5], 0.372 µM; in [6], 0.722 µM. The GI50 in test [7] is 0.433 µM; in [8] it was 0.384 µM; in [9], 0.431 µM; in test [10], 1.04 µM. In addition, the TGI was 29.2 µM in test [1]; over 100 µM in [2]; 25.8 µM in [3]; over 100 µM in test [4]; 3.52 µM in [5]; over 100 µM in test [6]. Besides, the TGI in [7] is 20.6 µM; in test [8], 3.44 µM; in [9], over 100 µM; in test [10], 14.5 µM.
`CO/N=C(\c1ccccc1)c1cnn(-c2ccccc2)c1N`: the GI50 in test [1], in test [2], in test [3], in test [4], in test [5] and in [6] was over 25 µM in each case. The GI50 in [7], in [8], in test [9] and in test [10] was over 25 µM each time. For the same molecule, the TGI in [1], in [2], in test [3], in [4], in test [5] and in [6] was over 25 µM each time. Also, the TGI in test [7], in test [8], in [9] and in test [10] was over 25 µM throughout.
As for `CC1(C)CCC(S(=O)(=O)c2ccc3c(c2)/C(=N\O)c2cc(S(=O)(=O)N4CCC(O)(c5cccc(C(F)(F)F)c5)CC4)ccc2-3)CC1`, the GI50 in test [1] was 0.034 µM; in [2] it was 0.019 µM; in test [3] it was 0.0238 µM; in test [4], 0.0154 µM; in [5], 0.0272 µM; in test [6], 0.0217 µM. Moreover, the GI50 in [7] was 0.0192 µM; in test [8], 0.0257 µM; in [9], 0.0219 µM; in test [10], 0.053 µM. The TGI was 0.112 µM in test [1]; 0.0375 µM in test [2]; 0.0585 µM in test [3]; 0.0319 µM in [4]; 0.11 µM in test [5]; 0.0503 µM in test [6]. Further, the TGI came out at 0.0414 µM in test [7], 0.0723 µM in test [8], 0.0492 µM in test [9] and 0.185 µM in [10].
Take `CCN(CC)c1ccc(NC(C(=O)c2ccccc2)c2ccccc2)cc1` (configuration not stated): the GI50 is 3.28 µM in test [1]; 2.16 µM in [2]; 3.62 µM in test [3]; 2.25 µM in test [4]; 3.34 µM in test [5]; 4.03 µM in [6]. For the same molecule, the GI50 in test [7] is 3.35 µM; in test [8] it was 3.19 µM; in test [9], 3.27 µM; in [10] it was 1.7 µM. In addition, the TGI in [1] is over 100 µM; in [2], 5.91 µM; in test [3], 16.8 µM; in [4], 5.93 µM; in test [5] it was 12.6 µM; in [6], 15.7 µM. Moreover, the TGI in [7] was 29 µM; in [8], over 100 µM; in test [9] it was 55.1 µM; in test [10] it was 3.47 µM.
Regarding `O=C(NO)c1ccc(C(=O)NO)cc1`, the TGI in [1], in test [2], in test [3], in test [4], in [5] and in test [6] was over 100 µM each time. Further, the TGI in test [7], in test [8], in test [9] and in test [10] was over 100 µM each time.
Regarding `CCCC[C@@H]1NC(=O)[C@H](CCCCN)NC(=O)[C@H](CCCNC(=N)N)NC(=O)[C@H](CC(C)C)NC(=O)[C@@H](NC(=O)[C@H](Cc2cccc(Cl)c2)NC(=O)[C@@H]2CCCN2C(=O)[C@@H](NC(C)=O)C(C)C)CCSSC[C@@H](C(=O)N[C@@H](CCCCN)C(=O)N2CCC[C@H]2C(=O)N2CCC[C@H]2C(=O)N[C@@H](CCC(=O)O)C(N)=O)NC(=O)[C@H](Cc2ccccc2)NC(=O)[C@H](CO)NC(=O)[C@H](C)NC(=O)[C@@H]2CCCN2C1=O`, the GI50 in test [1], in test [2], in test [3], in test [4], in test [5] and in test [6] was over 50 µM throughout. Also, the GI50 in test [7], in [8], in test [9] and in [10] was over 50 µM in each case. The TGI in test [1], in test [2], in test [3], in test [4], in test [5] and in test [6] was over 50 µM each time. For the same molecule, the TGI in [7], in test [8], in [9] and in test [10] was over 50 µM in each case.
In the case of `O=C(Cn1ccnc1[N+](=O)[O-])N(CCO)CCO`, the GI50 in test [1] is over 1250 µM; in [4] it was over 1250 µM; in [5] it was over 185 µM; in test [6], over 1250 µM; in test [8], over 1250 µM; in [9] it was over 1250 µM. In test [10], the GI50 is over 1250 µM. Besides, the TGI was over 1250 µM in test [1]; over 250 µM in [2]; over 250 µM in test [3]; over 1250 µM in test [4]; over 753 µM in test [5]; over 1250 µM in test [6]. The TGI in test [7] was over 250 µM; in test [8], over 1250 µM; in [9], over 1250 µM; in test [10] it was over 1250 µM.
